# In ChEMBL document CHEMBL3885881, “DrugMatrix”:
# Species on record: Rattus norvegicus
# Test: DrugMatrix - Regimen: Daily Repeat
# Assay type: toxicity, organism-based, Sprague-Dawley
# Design: regimen Daily Repeat, gender Male, age 6-8 weeks
# Details: in vivo, po, route oral GAVAGE, vehicle .5 % CMC; for ABSOLUTE BASOPHIL / ABSOLUTE EOSINOPHIL / ABSOLUTE LYMPHOCYTE / ABSOLUTE MONOCYTE / ABSOLUTE SEGMENTED NEUTROPHIL / BASOPHIL / EOSINOPHIL / ERYTHROCYTE COUNT / HEMATOCRIT / HEMOGLOBIN / LEUKOCYTE COUNT / LYMPHOCYTE / MEAN CORPUSCULAR HEMOGLOBIN / MEAN CORPUSCULAR HEMOGLOBIN CONCENTRATION / MEAN CORPUSCULAR VOLUME / MONOCYTE / NEUTROPHIL / NUCLEATED RED BLOOD CELLS / PLATELET COUNT: tissue Blood; for ALANINE AMINOTRANSFERASE / ALBUMIN / ALKALINE PHOSPHATASE / ASPARTATE AMINOTRANSFERASE / BLOOD UREA NITROGEN / CARBON DIOXIDE / CHLORIDE / CHOLESTEROL / CREATINE PHOSPHOKINASE / CREATININE / GLUCOSE / LACTATE DEHYDROGENASE / LIPASE / PHOSPHORUS / POTASSIUM / SODIUM / TOTAL BILIRUBIN / TOTAL PROTEIN / URIC ACID: tissue Plasma
# [1] = 1200 mg/kg, 120 h, dose level High, time 5 day
# [2] = […], 72 h, dose 3.3 mg/Kg, dose level Low, time 3 day
# [3] = […], 120 h, dose 3.3 mg/Kg, dose level Low, time 5 day
smiles,measurement,setting,value
CCC[C@@H]1C[C@@H](C(=O)N[C@@H]([C@H]2O[C@H](SC)[C@H](O)[C@@H](O)[C@H]2O)[C@@H](C)O)N(C)C1 [LINCOMYCIN],ABSOLUTE BASOPHIL,[1],0 CELLS/uL
same,ABSOLUTE EOSINOPHIL,[1],0 CELLS/uL
same,ABSOLUTE LYMPHOCYTE,[1],15154 CELLS/uL
same,ABSOLUTE MONOCYTE,[1],0 CELLS/uL
same,ABSOLUTE SEGMENTED NEUTROPHIL,[1],1379.33 CELLS/uL
same,BASOPHIL,[1],0%
same,EOSINOPHIL,[1],0%
same,ERYTHROCYTE COUNT,[1],5.63 x10E6/uL
same,HEMATOCRIT,[1],35.37%
same,HEMOGLOBIN,[1],14.33 G/DL
same,LEUKOCYTE COUNT,[1],16.53 x10E3/uL
same,LYMPHOCYTE,[1],91.67%
same,MEAN CORPUSCULAR HEMOGLOBIN,[1],25.5 pg
same,MEAN CORPUSCULAR HEMOGLOBIN CONCENTRATION,[1],40.53 G/DL
same,MEAN CORPUSCULAR VOLUME,[1],62.9 fL
same,MONOCYTE,[1],0%
same,NEUTROPHIL,[1],8.33%
same,NUCLEATED RED BLOOD CELLS,[1],0 /100WBC
same,PLATELET COUNT,[1],1331 x10E3/uL
same,ALANINE AMINOTRANSFERASE,[1],58.33 u/L
same,ALBUMIN,[1],4.13 G/DL
same,ALKALINE PHOSPHATASE,[1],343.67 u/L
same,ASPARTATE AMINOTRANSFERASE,[1],92.33 u/L
same,BLOOD UREA NITROGEN,[1],18.33 mg/dL
same,CARBON DIOXIDE,[1],25 mmol/L
same,CHLORIDE,[1],100.67 MEQ/L
same,CHOLESTEROL,[1],73.67 mg/dL
same,CREATINE PHOSPHOKINASE,[1],558 u/L
same,CREATININE,[1],0.27 mg/dL
same,GLUCOSE,[1],137 mg/dL
same,LACTATE DEHYDROGENASE,[1],505.33 u/L
same,LIPASE,[1],12 u/L
same,PHOSPHORUS,[1],12.77 mg/dL
same,POTASSIUM,[1],6.92 MEQ/L
same,SODIUM,[1],143.1 MEQ/L
same,TOTAL BILIRUBIN,[1],0.17 mg/dL
same,TOTAL PROTEIN,[1],6.1 G/DL
same,URIC ACID,[1],1.63 mg/dL
same,ABSOLUTE BASOPHIL,[2],0 CELLS/uL
same,ABSOLUTE EOSINOPHIL,[2],46 CELLS/uL
same,ABSOLUTE LYMPHOCYTE,[2],14091.33 CELLS/uL
same,ABSOLUTE MONOCYTE,[2],108.67 CELLS/uL
same,ABSOLUTE SEGMENTED NEUTROPHIL,[2],1220.67 CELLS/uL
same,BASOPHIL,[2],0%
same,EOSINOPHIL,[2],0.33%
same,ERYTHROCYTE COUNT,[2],5.49 x10E6/uL
same,HEMATOCRIT,[2],34.5%
same,HEMOGLOBIN,[2],13.93 G/DL
same,LEUKOCYTE COUNT,[2],15.47 x10E3/uL
same,LYMPHOCYTE,[2],91%
same,MEAN CORPUSCULAR HEMOGLOBIN,[2],25.43 pg
same,MEAN CORPUSCULAR HEMOGLOBIN CONCENTRATION,[2],40.4 G/DL
same,MEAN CORPUSCULAR VOLUME,[2],63 fL
same,MONOCYTE,[2],0.67%
same,NEUTROPHIL,[2],8%
same,NUCLEATED RED BLOOD CELLS,[2],0 /100WBC
same,PLATELET COUNT,[2],1331.67 x10E3/uL
same,ALANINE AMINOTRANSFERASE,[2],53.67 u/L
same,ALBUMIN,[2],4.23 G/DL
same,ALKALINE PHOSPHATASE,[2],358.67 u/L
same,ASPARTATE AMINOTRANSFERASE,[2],85.33 u/L
same,BLOOD UREA NITROGEN,[2],15.67 mg/dL
same,CARBON DIOXIDE,[2],29.67 mmol/L
same,CHLORIDE,[2],101 MEQ/L
same,CHOLESTEROL,[2],72 mg/dL
same,CREATINE PHOSPHOKINASE,[2],274.33 u/L
same,CREATININE,[2],0.21 mg/dL
same,GLUCOSE,[2],154.67 mg/dL
same,LACTATE DEHYDROGENASE,[2],216.67 u/L
same,LIPASE,[2],9.67 u/L
same,PHOSPHORUS,[2],12.97 mg/dL
same,POTASSIUM,[2],7.32 MEQ/L
same,SODIUM,[2],144.13 MEQ/L
same,TOTAL BILIRUBIN,[2],0.2 mg/dL
same,TOTAL PROTEIN,[2],5.83 G/DL
same,URIC ACID,[2],2.13 mg/dL
same,ABSOLUTE BASOPHIL,[3],0 CELLS/uL
same,ABSOLUTE EOSINOPHIL,[3],0 CELLS/uL
same,ABSOLUTE LYMPHOCYTE,[3],14059.67 CELLS/uL
same,ABSOLUTE MONOCYTE,[3],0 CELLS/uL
same,ABSOLUTE SEGMENTED NEUTROPHIL,[3],1173.67 CELLS/uL
same,BASOPHIL,[3],0%
same,EOSINOPHIL,[3],0%
same,ERYTHROCYTE COUNT,[3],5.56 x10E6/uL
same,HEMATOCRIT,[3],34.53%
same,HEMOGLOBIN,[3],13.97 G/DL
same,LEUKOCYTE COUNT,[3],15.23 x10E3/uL
same,LYMPHOCYTE,[3],92.33%
same,MEAN CORPUSCULAR HEMOGLOBIN,[3],25.1 pg
same,MEAN CORPUSCULAR HEMOGLOBIN CONCENTRATION,[3],40.43 G/DL
same,MEAN CORPUSCULAR VOLUME,[3],62.13 fL
same,MONOCYTE,[3],0%
same,NEUTROPHIL,[3],7.67%
same,NUCLEATED RED BLOOD CELLS,[3],0 /100WBC
same,PLATELET COUNT,[3],1194.33 x10E3/uL
same,ALANINE AMINOTRANSFERASE,[3],57.33 u/L
same,ALBUMIN,[3],4.37 G/DL
same,ALKALINE PHOSPHATASE,[3],326 u/L
same,ASPARTATE AMINOTRANSFERASE,[3],107.67 u/L
same,BLOOD UREA NITROGEN,[3],17 mg/dL
same,CARBON DIOXIDE,[3],28 mmol/L
same,CHLORIDE,[3],100.33 MEQ/L
same,CHOLESTEROL,[3],76.67 mg/dL
same,CREATINE PHOSPHOKINASE,[3],786.33 u/L
same,CREATININE,[3],0.23 mg/dL
same,GLUCOSE,[3],160.67 mg/dL
same,LACTATE DEHYDROGENASE,[3],134.33 u/L
same,LIPASE,[3],9 u/L
same,PHOSPHORUS,[3],12.5 mg/dL
same,POTASSIUM,[3],6.98 MEQ/L
same,SODIUM,[3],144.77 MEQ/L
same,TOTAL BILIRUBIN,[3],0.17 mg/dL
same,TOTAL PROTEIN,[3],6.33 G/DL
same,URIC ACID,[3],2.3 mg/dL
